# Reference: patent US10829501B2 (BRISTOL-MYERS SQUIBB COMPANY, priority 2016, dated 2020)
# Target: ROCK2 (Homo sapiens, UniProt O75116)
# Experiment: ROCK2 kinase inhibition assay (LABCHIP 3000 Reader, FITC peptide substrate);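 also: rho kinase reaction read by separating phosphorylated from unphosphorylated peptide on chip, with inhibition of kinase activity computed per concentration across a dose-response series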
# Chain of ROCK2 (O75116 whole entry, species assumed): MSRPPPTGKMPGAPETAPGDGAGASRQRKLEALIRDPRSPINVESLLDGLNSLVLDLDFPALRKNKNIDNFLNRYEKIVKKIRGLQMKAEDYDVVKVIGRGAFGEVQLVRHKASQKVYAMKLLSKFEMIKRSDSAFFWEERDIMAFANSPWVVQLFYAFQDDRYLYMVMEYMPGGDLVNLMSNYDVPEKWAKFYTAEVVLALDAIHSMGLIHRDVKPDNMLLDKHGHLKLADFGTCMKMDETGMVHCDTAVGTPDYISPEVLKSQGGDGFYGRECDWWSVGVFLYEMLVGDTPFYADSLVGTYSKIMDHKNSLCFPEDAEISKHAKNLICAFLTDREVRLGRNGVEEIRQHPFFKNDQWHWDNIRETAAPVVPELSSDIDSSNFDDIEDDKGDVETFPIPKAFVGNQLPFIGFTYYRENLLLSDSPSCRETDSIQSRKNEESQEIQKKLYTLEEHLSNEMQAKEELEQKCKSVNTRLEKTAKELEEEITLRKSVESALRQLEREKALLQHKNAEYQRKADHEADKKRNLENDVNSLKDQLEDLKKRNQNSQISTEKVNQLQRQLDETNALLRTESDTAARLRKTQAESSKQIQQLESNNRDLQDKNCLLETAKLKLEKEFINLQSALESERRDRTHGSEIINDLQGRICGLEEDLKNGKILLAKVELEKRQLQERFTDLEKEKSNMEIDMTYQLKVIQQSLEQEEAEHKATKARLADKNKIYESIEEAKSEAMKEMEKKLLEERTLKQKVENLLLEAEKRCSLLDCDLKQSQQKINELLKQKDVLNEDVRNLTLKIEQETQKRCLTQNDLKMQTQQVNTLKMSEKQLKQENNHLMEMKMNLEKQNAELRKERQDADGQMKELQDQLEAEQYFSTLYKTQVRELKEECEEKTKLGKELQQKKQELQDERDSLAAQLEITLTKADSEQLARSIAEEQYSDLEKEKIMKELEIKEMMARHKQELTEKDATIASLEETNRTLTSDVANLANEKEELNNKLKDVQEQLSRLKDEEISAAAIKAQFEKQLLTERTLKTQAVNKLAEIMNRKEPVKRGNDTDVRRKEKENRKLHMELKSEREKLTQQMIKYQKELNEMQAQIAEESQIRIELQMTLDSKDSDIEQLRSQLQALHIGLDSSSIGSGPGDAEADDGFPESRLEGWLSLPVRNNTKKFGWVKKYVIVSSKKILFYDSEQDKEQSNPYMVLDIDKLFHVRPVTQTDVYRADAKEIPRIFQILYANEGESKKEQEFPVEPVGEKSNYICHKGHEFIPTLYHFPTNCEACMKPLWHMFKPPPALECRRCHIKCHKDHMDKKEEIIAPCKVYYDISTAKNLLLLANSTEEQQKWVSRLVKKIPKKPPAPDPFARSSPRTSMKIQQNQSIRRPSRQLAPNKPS
row,IC50,Compound
1,< 5 nM,"NC(=O)c1ccccc1O[C@H]1CC2(C[C@H](NC(=O)c3cnn4cc(OC5CCS(=O)(=O)CC5)ccc34)C2)C1 (stereo partly drawn) [Example 28, N-[(aR)-6-(2-carbamoylphenoxy)spiro [3.3]heptan-2-yl]-6-[(1,1-dioxo-1λ^6-thian-4-yl)oxy]pyrazolo [1,5-a]pyridine-3-carboxamide]"
2,5 to 50 nM,"NC(=O)c1ccccc1O[C@H]1CC2(C[C@H](NC(=O)c3cnc4cc(N5CCOCC5)ccn34)C2)C1 (stereo partly drawn) [Example 29, N-[(aR)-6-(2-carbamoylphenoxy)spiro [3.3]heptan-2-yl]-7-(morpholin-4-yl)imidazo[1,2-a]pyridine-3-carboxamide]"
3,< 5 nM,"CS(=O)(=O)CCCOc1ccc2c(C(=O)NC3CC4(C3)CC(Oc3ccccc3C(N)=O)C4)cnn2c1C1CC1 [Example 30, N-[(aR)-6-(2-carbamoylphenoxy)spiro [3.3]heptan-2-yl]-7-cyclopropyl-6-(3-methanesulfonylpropoxy) pyrazolo[1,5-a] pyridine-3-carboxamide]"
4,5 to 50 nM,"NC(=O)c1ccccc1O[C@H]1CC2(C[C@H](NC(=O)c3cnn4c(C5CC5)c(OCCO)ccc34)C2)C1 (stereo partly drawn) [Example 31, N-[(aR)-6-(2-carbamoylphenoxy)spiro [3.3]heptan-2-yl]-7-cyclopropyl-6-(2-hydroxyethoxy)pyrazolo[1,5-a]pyridine-3-carboxamide]"
5,< 5 nM,"NC(=O)c1ccccc1OC1CC2(CC(NC(=O)c3cnn4c(C5CC5)c(OCCC(F)(F)F)ccc34)C2)C1 [Example 32, N-[(aR)-6-(2-carbamoylphenoxy)spiro [3.3]heptan-2-yl]-7-cyclopropyl-6-(3,3,3-trifluoropropoxy)pyrazolo [1,5-a]pyridine-3-carboxamide]"
6,< 5 nM,"NC(=O)c1ccccc1O[C@H]1CC2(C[C@H](NC(=O)c3cnn4cc(OCCC(F)(F)F)ccc34)C2)C1 (stereo partly drawn) [Example 33, N-[(aR)-6-(2-carbamoylphenoxy)spiro [3.3]heptan-2-yl]-6-(3,3,3-trifluoropropoxy) pyrazolo[1,5-a]pyridine-3-carboxamide]"
7,5 to 50 nM,"Cn1cc(-c2ccn3c(C(=O)N[C@H]4CC5(C4)C[C@H](Oc4ccccc4C(N)=O)C5)cnc3c2)cn1 (stereo partly drawn) [Example 34, N-[(aR)-6-(2-carbamoylphenoxy)spiro [3.3]heptan-2-yl]-7-(1-methyl-1H-pyrazol-4-yl)imidazo [1,2-a]pyridine-3-carboxamide]"
8,< 5 nM,"NC(=O)c1ccccc1OC1CC2(CC(NC(=O)c3cnn4c(C5CC5)c(OC5CCS(=O)(=O)CC5)ccc34)C2)C1 [Example 35, N-[(aR)-6-(2-carbamoylphenoxy)spiro [3.3]heptan-2-yl]-7-cyclopropyl-6-[(1,1-dioxo-1λ^6-thian-4-yl)oxy]pyrazolo[1,5-a] pyridine-3-carboxamide]"
9,5 to 50 nM,"CN1CCN(c2ccn3c(C(=O)N[C@H]4CC5(C4)C[C@H](Oc4ccccc4C(N)=O)C5)cnc3c2)CC1 (stereo partly drawn) [Example 36, N-[(aR)-6-(2-carbamoylphenoxy)spiro [3.3]heptan-2-yl]-7-(4-methylpiperazin-1-yl)imidazo[1,2-a] pyridine-3-carboxamdie]"
10,5 to 50 nM,"COc1ccc2c(c1)CCN2C(=O)N[C@H]1CC2(C1)C[C@H](Oc1ccccc1C(N)=O)C2 (stereo partly drawn) [Example 38, N-[(aR)-6-(2-carbamoylphenoxy)spiro [3.3]heptan-2-yl]-5-methoxy-2,3-dihydro-1H-indole-1-carboxamide]"
11,50 to 250 nM,"CS(=O)(=O)c1ccc2c(c1)CCN2C(=O)N[C@H]1CC2(C1)C[C@H](Oc1ccccc1C(N)=O)C2 (stereo partly drawn) [Example 39, N-[(aR)-6-(2-carbamoylphenoxy)spiro [3.3]heptan-2-yl]-5-methanesulfonyl-2,3-dihydro-1H-indole-1-carboxamide]"
12,50 to 250 nM,"NC(=O)c1ccccc1O[C@H]1CC2(C[C@H](NC(=O)N3Cc4ccccc4C3)C2)C1 (stereo partly drawn) [Example 41, N-[(aR)-6-(2-carbamoylphenoxy)spiro [3.3]heptan-2-yl]-2,3-dihydro-1H-isoindole-2-carboxamide]"

# Continued, molecule first:
row,Compound,IC50
1,"CC(C)(O)COc1ccc2c(C(=O)N[C@H]3CC4(C3)C[C@H](Oc3ccccc3C(N)=O)C4)cnn2c1CCC(F)(F)F (stereo partly drawn) [Example 19, N-[(aR)-6-(2-carbamoylphenoxy)spiro[3.3]heptan-2-yl]-6-(2-hydroxy-2-methylpropoxy)-7-(3,3,3-trifluoropropyl)pyrazolo [1,5-a]pyridine-3-carboxamide]",< 5 nM
2,"NC(=O)c1ccccc1O[C@H]1CC2(C[C@H](NC(=O)c3cnn4ccc(OCCN5CCOCC5)cc34)C2)C1 (stereo partly drawn) [Example 20, N-[(aR)-6-(2-carbamoylphenoxy)spiro[3.3]heptan-2-yl]-5-[2-(morpholin-4-yl)ethoxy]pyrazolo[1,5-a]pyridine-3-carboxamide]",5 to 50 nM
3,"NC(=O)c1ccccc1O[C@H]1CC2(C[C@H](NC(=O)c3cnn4cc(OCCN5CCCC5)ccc34)C2)C1 (stereo partly drawn) [Example 21, N-[(aR)-6-(2-carbamoylphenoxy)spiro[3.3]heptan-2-yl]-6-[2-(pyrrolidin-1-yl)ethoxy]pyrazolo[1,5-a]pyridine-3-carboxamide]",5 to 50 nM
4,"NC(=O)c1ccccc1O[C@H]1CC2(C[C@H](NC(=O)c3cnn4cc(OCC(F)F)ccc34)C2)C1 (stereo partly drawn) [Example 22, N-[(aR)-6-(2-carbamoylphenoxy)spiro[3.3]heptan-2-yl]-6-(2,2-difluoroethoxy)pyrazolo [1,5-a]pyridine-3-carboxamide]",5 to 50 nM
5,"NC(=O)c1ccccc1O[C@H]1CC2(C[C@H](NC(=O)c3cnn4cc(N5CCC(F)(F)C5)ccc34)C2)C1 (stereo partly drawn) [Example 23, N-[(aR)-6-(2-carbamoylphenoxy)spiro[3.3]heptan-2-yl]-6-(3,3-difluoropyrrolidin-1-yl)pyrazolo[1,5-a]pyridine-3-carboxamide]",< 5 nM
6,"NC(=O)c1ccccc1O[C@H]1CC2(C[C@H](NC(=O)c3cnn4cc(OC(F)F)ccc34)C2)C1 (stereo partly drawn) [Example 24, N-[(aR)-6-(2-carbamoylphenoxy)spiro[3.3]heptan-2-yl]-6-(difluoromethoxy)pyrazolo [1,5-a]pyridine-3-carboxamide]",5 to 50 nM
7,"NC(=O)c1ccccc1O[C@H]1CC2(C[C@H](NC(=O)c3cnc4cc(N5CCC(F)(F)C5)ccn34)C2)C1 (stereo partly drawn) [Example 25, N-[(aR)-6-(2-carbamoylphenoxy)spiro[3.3]heptan-2-yl)-7-(3,3-difluoropyrrolidin-1-yl)imidazo[1,2-a]pyridine-3-carboxamide]",< 5 nM
8,"NC(=O)c1ccccc1O[C@H]1CC2(C[C@H](NC(=O)c3cnc4cc(OCCN5CCCC5)ccn34)C2)C1 (stereo partly drawn) [Example 26, N-((aR)-6-(2-carbamoylphenoxy)spiro[3.3]heptan-2-yl)-7-(2-(pyrrolidin-1-yl)ethoxy)imidazo[1,2-a]pyridine-3-carboxamdie]",5 to 50 nM
9,"COC(=O)N1CC(Oc2ccc3c(C(=O)N[C@H]4CC5(C4)C[C@H](Oc4ccccc4C(N)=O)C5)cnn3c2)C1 (stereo partly drawn) [Example 27, methyl 3-((3-(((aR)-6-(2-carbamoylphenoxy)spiro[3.3]heptan-2-yl)carbamoyl)pyrazolo[1,5-a]pyridin-6-yl)oxy)azetidine-1-carboxylate]",5 to 50 nM
10,"NC(=O)c1ccccc1O[C@H]1CC2(C[C@H](NC(=O)N3CCc4ccccc43)C2)C1 (stereo partly drawn) [Example 37, N-((aR)-6-(2-carbamoylphenoxy)spiro[3.3]heptan-2-yl)indoline-1-carboxamide]",50 to 250 nM
11,"COc1ccc(NC(=O)N[C@H]2CC3(C2)C[C@H](Oc2ccccc2C(N)=O)C3)cc1 (stereo partly drawn) [Example 40, 2-[((aR)-6-{[(4-methoxyphenyl)carbamoyl]amino}spiro[3.3]heptan-2-yl)oxy]benzamide]",50 to 250 nM
12,"[H][C@]1(Oc2ncccc2C(N)=O)C[C@@]2(C[C@H](NC(=O)c3cnn4c(C5CC5)c(OCC(C)(C)O)ccc34)C2)C1 (stereo partly drawn) [Example 42, N-((aR)-6-((3-carbamoylpyridin-2-yl)oxy)spiro[3.3]heptan-2-yl)-7-cyclopropyl-6-(2-hydroxy-2-methylpropoxy)pyrazolo[1,5-a]pyridine-3-carboxamide]",< 5 nM
13,"[H][C@]1(Oc2ncccc2C(N)=O)C[C@@]2(C[C@H](NC(=O)c3cnn4c(CCC(F)(F)F)c(OCC(C)(C)O)ccc34)C2)C1 (stereo partly drawn) [Example 43, N-((aR)-6-((3-carbamoylpyridin-2-yl)oxy)spiro[3.3]heptan-2-yl)-6-(2-hydroxy-2-methylpropoxy)-7-(3,3,3-trifluoropropyl)pyrazolo[1,5-a]pyridine-3-carboxamide]",< 5 nM
14,"[H][C@]1(Oc2ccncc2C(N)=O)C[C@@]2(C[C@H](NC(=O)c3cnn4cc(OCC(C)(C)O)ccc34)C2)C1 (stereo partly drawn) [Example 44, N-((aR)-6-((3-carbamoylpyridin-4-yl)oxy)spiro[3.3]heptan-2-yl)-6-(2-hydroxy-2-methylpropoxy)pyrazolo[1,5-a]pyridine-3-carboxamide]",250 to 2500 nM
15,"[H][C@]1(Oc2cnccc2C(N)=O)C[C@@]2(C[C@H](NC(=O)c3cnn4cc(OCC(C)(C)O)ccc34)C2)C1 (stereo partly drawn) [Example 45, N-((aR)-6-((4-carbamoylpyridin-3-yl)oxy)spiro[3.3]heptan-2-yl)-6-(2-hydroxy-2-methylpropoxy)pyrazolo[1,5-a]pyridine-3-carboxamide]",50 to 250 nM
16,"[H][C@]1(Oc2ncccc2C(N)=O)C[C@@]2(C[C@H](NC(=O)c3nn(CC(C)(C)O)c4cc(-c5cnn(C)c5)ccc34)C2)C1 (stereo partly drawn) [Example 46, N-((aR)-6-((3-carbamoylpyridin-2-yl)oxy)spiro[3.3]heptan-2-yl)-1-(2-hydroxy-2-methylpropyl)-6-(1-methyl-1H-pyrazol-4-yl)-1H-indazole-3-carboxamide]",< 5 nM
17,"[H][C@]1(Oc2ncccc2C(N)=O)C[C@@]2(C[C@H](NC(=O)c3cnc4c(C5CC5)c(OCC(C)(C)F)ccn34)C2)C1 (stereo partly drawn) [Example 47, N-((aR)-6-((3-carbamoylpyridin-2-yl)oxy)spiro[3.3]heptan-2-yl)-8-cyclopropyl-7-(2-fluoro-2-methylpropoxy)imidazo[1,2-a]pyridine-3-carboxamide]",5 to 50 nM
18,"CC(C)(O)COc1ccc2c(C(=O)N[C@H]3CC4(C3)C[C@H](Oc3nnccc3C(N)=O)C4)cnn2c1 (stereo partly drawn) [Example 48, N-((aR)-6-((4-carbamoylpyridazin-3-yl)oxy)spiro[3.3]heptan-2-yl)-6-(2-hydroxy-2-methylpropoxy)pyrazolo[1,5-a]pyridine-3-carboxamide]",50 to 250 nM
